Values joined by “and” are separate entries in the source; they are usually repeats but may differ in a detail not shown here. Equal values may be shown once. Each block holds one compound with its values, some of them ahead of it.
Legend:
[1] = molecular target: T1, Gal-L-RXR (Homo sapiens, UniProt P19793); assay: Gal-L-RXR fusion with Gal 4 reporter (MH100×4) in CV-1 cells; type: cell-based; conditions: 5 μM
T1 construct: expressed in transfected cells; host or cells: CV-1
T1 sequence (P19793 203-462): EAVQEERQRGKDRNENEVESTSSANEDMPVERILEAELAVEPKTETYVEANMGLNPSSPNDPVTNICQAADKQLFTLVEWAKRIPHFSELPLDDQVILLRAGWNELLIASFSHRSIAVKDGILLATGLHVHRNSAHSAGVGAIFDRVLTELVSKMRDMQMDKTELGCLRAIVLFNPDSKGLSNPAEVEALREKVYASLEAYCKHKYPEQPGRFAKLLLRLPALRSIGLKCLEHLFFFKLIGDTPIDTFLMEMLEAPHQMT

[2] = system: AR, mPXR, hPXR, ERα, CARβ, LXRα, PPARα, PPARβ, PPARδ, VDR and TRβ; assay: Activation of other RXR heterodimers / nuclear receptors (transfection assay); type: cell-based
[3] = system: human AR, mouse PXR, human PXR, ERα, human LXRα, mouse PPARα, mouse PPARγ, mouse PPARδ, human VDR, human TRB, mouse CARβ; assay: Repression of cognate ligand-induced activity of other nuclear receptor/RXR heterodimers (luciferase reporter); type: cell-based; conditions: 1 mM AGN 34 with cognate ligand
Procedure: Resulting chemiluminescence was measured in a luminometer.
Various other nuclear receptor/RXR heterodimers were incubated with the cognate ligand of the non-RXR component of the heterodimer. These were: human AR (androgen receptor), mouse PXR (10 μM pregnenolone-16-carbonitrile), human PXR (10 μM rifampicin), ERα (100 nM 17β-estradiol), human LXRα (30 μM hyodeoxycholic acid methyl ester), mouse PPARα (5 μM Wy 14,643), mouse PPARγ (1 μM rosiglitazone), mouse PPARδ (1 μM carbaprostacyclin), human VDR (100 nM 1,25-dihydroxyvitamin D3) and human TRB (100 nM triiodothyronine). No ligand was added to mouse CARβ which is constitutively active. Each compound was incubated in the presence or absence of 1 mM AGN 34, then assayed for luciferase reporter activity.

[4] = molecular target: T2, HFXR / HRXRop (Homo sapiens, UniProt P19793+Q96RI1); assay: Co-transfection luciferase assay, EcRE × 6 reporter, HFXR + HRXRop;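 further: CV-1 monkey cells transfected with receptor vectors, luciferase reporter and β-galactosidase internal control, exposed to compounds about 40 h, then lysed and luminescence read in a luminometer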
T2 sequence (Q96RI1 1-486): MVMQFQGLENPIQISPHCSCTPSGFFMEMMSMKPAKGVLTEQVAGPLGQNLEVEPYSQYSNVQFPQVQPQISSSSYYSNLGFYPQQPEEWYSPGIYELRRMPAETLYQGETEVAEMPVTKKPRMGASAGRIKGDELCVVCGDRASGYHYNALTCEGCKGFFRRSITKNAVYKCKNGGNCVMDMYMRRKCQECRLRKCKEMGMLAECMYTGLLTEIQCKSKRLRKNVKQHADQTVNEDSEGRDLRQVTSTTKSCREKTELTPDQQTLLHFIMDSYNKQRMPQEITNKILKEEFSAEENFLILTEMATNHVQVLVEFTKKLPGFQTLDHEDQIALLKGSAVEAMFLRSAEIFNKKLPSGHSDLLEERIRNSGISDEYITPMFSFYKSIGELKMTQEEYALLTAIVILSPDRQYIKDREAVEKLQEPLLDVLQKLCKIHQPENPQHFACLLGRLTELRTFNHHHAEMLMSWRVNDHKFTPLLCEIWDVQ
T2 sequence (P19793 1-462): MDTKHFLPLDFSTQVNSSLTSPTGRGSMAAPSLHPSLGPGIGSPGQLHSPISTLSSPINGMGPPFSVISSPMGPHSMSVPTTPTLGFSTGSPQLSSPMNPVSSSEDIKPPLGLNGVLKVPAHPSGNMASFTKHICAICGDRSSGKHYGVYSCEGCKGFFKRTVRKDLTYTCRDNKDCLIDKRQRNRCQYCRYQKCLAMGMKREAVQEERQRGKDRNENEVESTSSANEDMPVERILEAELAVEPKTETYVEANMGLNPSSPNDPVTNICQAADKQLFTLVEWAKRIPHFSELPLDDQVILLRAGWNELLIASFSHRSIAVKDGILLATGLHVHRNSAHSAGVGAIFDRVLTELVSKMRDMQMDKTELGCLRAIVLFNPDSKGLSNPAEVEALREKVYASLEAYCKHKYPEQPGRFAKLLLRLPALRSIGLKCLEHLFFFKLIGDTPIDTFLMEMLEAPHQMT

activation of RXR [1]: retained some ability to activate RXR
SMILES: CCCC/C(=C\c1ccc(C(=O)O)cc1)c1ccc2c(c1)C(C)(C)CCC2(C)C [AGN 31, 4-[2-(5,5,8,8-Tetramethyl-5,6,7,8-tetrahydronaphthalen-2-yl)hex-1-enyl]benzoic Acid]
effect on other RXR heterodimers containing nuclear receptors [2]: no effect

SMILES: Cc1cc2c(cc1/C(=C/c1ccc(C(=O)O)cc1)[Si](C)(C)C)C(C)(C)CCC2(C)C [AGN 29, (Z)-4-[2-(3,5,5,8,8-Pentamethy1-5,6,7,8-tetrahydronaphthalen-2-yl)-2-(trimethylsilyl)vinyl]benzoic Acid]
activation of RXR [1]: retained some ability to activate RXR
effect on other RXR heterodimers containing nuclear receptors [2]: no effect

repression of specific ligand-induced activity of other nuclear receptors [3]: unable to repress
Fold Activation ([4]; 0.1 μM LG268 + 0.01 μM AGN 34): 2.36 fold
Reporter Activity ([4]; 0.1 μM LG268 + 0.01 μM AGN 34): 0.76
Fold Activation ([4]; 0.1 μM LG268 + 0.1 μM AGN 34): 1.45 fold
Reporter Activity ([4]; 0.1 μM LG268 + 0.1 μM AGN 34): 0.47
Fold Activation ([4]; 0.1 μM LG268 + 1 μM AGN 34): 1.23 fold
Reporter Activity ([4]; 0.1 μM LG268 + 1 μM AGN 34): 0.40
Fold Activation ([4]; 0.1 μM LG268 + 3 μM AGN 34): 1.26 fold
Reporter Activity ([4]; 0.1 μM LG268 + 3 μM AGN 34): 0.41
Fold Activation ([4]; 0.1 μM LG268 + 10 μM AGN 34): 1.22 fold
Reporter Activity ([4]; 0.1 μM LG268 + 10 μM AGN 34): 0.39
Fold Activation ([4]; 10 μM AGN 34 alone): 1.21 fold and 1.35 fold
Reporter Activity ([4]; 10 μM AGN 34 alone): 0.41 and 0.44
Fold Activation ([4]; 50 μM CDCA + 0.01 μM AGN 34): 15.00 fold
Reporter Activity ([4]; 50 μM CDCA + 0.01 μM AGN 34): 5.14
Fold Activation ([4]; 50 μM CDCA + 0.1 μM AGN 34): 11.73 fold
Reporter Activity ([4]; 50 μM CDCA + 0.1 μM AGN 34): 4.02
Fold Activation ([4]; 50 μM CDCA + 1 μM AGN 34): 7.08 fold and 5.51 fold
Reporter Activity ([4]; 50 μM CDCA + 1 μM AGN 34): 2.42
Fold Activation ([4]; 50 μM CDCA + 3 μM AGN 34): 5.78 fold
Reporter Activity ([4]; 50 μM CDCA + 3 μM AGN 34): 1.98
Fold Activation ([4]; 50 μM CDCA + 10 μM AGN 34): 6.58 fold
Reporter Activity ([4]; 50 μM CDCA + 10 μM AGN 34): 2.25
SMILES: CCCCCCOc1c(\C(C)=C/C=C/C(C)=C/C(=O)O)cc(C(C)C)cc1C(C)C [AGN 34, (2E, 4E, 6Z)-7-(2-Hexyloxy-3,5-diisopropylphenyl)-3-methylocta-2,4,6-trienoic Acid]

— patent US20030144360A1, “Composition and method for modulating BAR/FXR receptor activity” (Allergan Sales, Inc., priority 2001, published 2003)
